Test results reported in US9764047B2, “Method for obtaining novel derivatives of naphthalene for the in vivo diagnosis of alzheimer's disease” (CENTRO DE NEUROCIENCIAS DE CUBA, priority 2009, dated 2017).
Like-named read-outs stand apart in the source and are kept apart here. Blank lines part the entries; values can stand above or below the molecule they belong to.

Key:
[1] = Determination of partition coefficients (n-octanol/water, radiotracer method); assay type: physicochemical
Description: Chemical compounds that cross the blood brain barrier (BBB) should be neutral and lipophilic and also, have a low molecular weight. The partition coefficient (P) provides a measure of the compound lipophilicity and is closely related to drug distribution in the body, its absorption in tissues and its route of excretion (Meade et al. in Curr. Opin. Neurobiol., 2003, 13, 5, 597-602). One method used to determine this parameter is that of radiotracers which relates the radiotracers activity or number of counts in the octanol organic phase with that of the aqueous phase. In this invention the compounds labeling is carried out using the Iodogeno method (^131I).
Determination of Partition Coefficients: A solution of 9 (20 μL), prepared as described in example 10, was added to a mixture of 3 ml of n-octanol and 3 ml of distilled water. After stirring and leaving to stand the mixture, aliquots of 20 μL from each phase were taken to determine the radiometric distribution ratio by an activity meter (CRC 35R, Capintec Inc.). This procedure was repeated to the radiopharmaceutical of ^99mTc-ECD as reference, which is used for cerebral perfusion studies.

[2] = Biodistribution in rats after intravenous injection (gamma camera imaging); assay type: in vivo, male Wistar rats
Protocol: The arrow indicates the detection of the compound in the region of interest (maximum uptake at about 3 min.).
Animal Studies: A solution of 9 15 MBq ([…]), prepared as described above, was administered to male Wistar rats (160 g, n=3) through the lateral tail vein. Then, images were taken every 15 seconds, for 30 min. (120 images) with a gamma camera (Medis Nucline TH22, Hungary), with a peak centered at 360 keV and a window of ±25%. The image processing was performed on a processing station Segami (USA).

melting point: 180.5 to 181.8 °C
Molecule: O=C(O)CCNC(=O)CCC(=O)Nc1cccc2ccccc12

melting point: 167 to 169 °C
Molecule: O=C(O)CCC(=O)Nc1cccc2ccccc12 [Compound 2, 4-(1-naphthylamino)-4-oxobutanoic acid]

Partition coefficient [1]: 40.6
logP [1]: 1.6
Molecule: CCOC(=O)[C@H](C[S-])[N-]CCN[C@@H](C[S-])C(=O)OCC.[O-2].[Tc] [^99mTc-ECD, ^99mTc-ethylcysteinate diethyl ester, reference compound]

Molecule: N1-(2-aminoethyl)-N4-(1-naphthyl) succinimide-^131I [Compound 9]
Partition coefficient ([1]; n-octanol/distilled water, radiometric distribution ratio): 0.54
logP ([1]; octanol/water): −0.27
time of maximum uptake in the region of interest ([2]; 131I-labeled compound): about 3 min
excretion of the radioiodinated compound ([2]; after maximum uptake): slow excretion
